SMILES strings stand for the structures. Counter-ions that a name gives are not always drawn.

One experiment deals with T1, Abl (T315I) (Homo sapiens, UniProt P00519, T315I).
T1 construct: purchased Upstate
In words: Abl (T315I) Kinase Assay (KinaseGlo luminescent detection of residual ATP). It is filed as biochemical. The settings on record: Abl (T315I) IC50 (nM), Abl (T315I) (Upstate, 17 ng/well), Abltide 100 uM, ATP 500 nM, 60 minutes at 37° C. As to the method:
The assay was performed similarly to the Abl kinase assay. Abl (T315I) (Upstate, 17 ng/well); Abltide substrate (100 uM) and ATP (500 nM) comprised the reaction mixture. Compound was similarly diluted, and the reaction plate was incubated for 60 minutes at 37° C.
In general terms: Kinase-Glo reads ATP consumption through a luciferase reaction.

For another experiment, the target named is Abl kinase (Homo sapiens, UniProt P00519). In words: biochemical. The note with it: Abl IC50 (nM), Abl kinase (Invitrogen, 20 ng/well), Abltide 100 μM, ATP 500 nM, 37° C. for 60 minutes, top concentration 10 uM.

Description for Abl kinase: Kinase activity was assessed using luminescent detection (KinaseGlo, Promega) of residual ATP concentration in reaction mixtures containing optimized levels of kinase, substrate, ATP, compound and appropriate buffers. Kinase, substrate and ATP concentrations were determined per the supplier's recommendations. Briefly, this involved running concentration curves to select for optimal signal.
The reaction mixture (50 ul/well) consisted of Abl kinase (Invitrogen, 20 ng/well); Abltide peptide substrate (Upstate, 100 μM) and ATP (500 nM). Each compound was evaluated at a top concentration of 10 uM with 1:3 dilution steps, 10 dilution steps total. Compound was diluted into DMSO and transferred to the reaction plate, resulting in a final DMSO concentration of 2%. This amount of DMSO was determined not to interfere with the enzyme. The reaction was conducted at 37° C. for 60 minutes. The degree of inhibition was assessed using IC50 determinations, which were obtained using GraphPad Prism4.

As a reminder, the IC50 is the concentration that inhibits the measured activity by half. For the compound `O=S(=O)(c1ccc(Nc2ncc(/C=C/c3ccc(O)c(O)c3)cn2)cc1)C1CCNCC1` [4-((E)-2-(2-(4-(piperidin-4-ylsulfonyl)phenylamino)pyrimidin-5-yl)vinyl)benzene-1,2-diol Hydrochloride], the half-inhibitory concentration (IC50) at Abl (T315I) was 40 nM; against Abl kinase, 25 nM.
In the case of `Cc1cc(S(=O)(=O)N2CCNCC2)ccc1Nc1ncc(/C=C/c2cccc(O)c2)cn1` [3-(2-{2-[2-Methyl-4-(piperazine-1-sulfonyl)-phenylamino]-pyrimidin-5-yl}-vinyl)-phenol], the IC50 against Abl (T315I) turned out to be 10400 nM; at Abl kinase, 3450 nM.
For `O=S(=O)(c1ccc(Nc2ncc(/C=C/c3cccc4[nH]ncc34)cn2)cc1NCCO)N1CCNCC1` [2-{[5-({5-[(E)-2-(1H-indazol-4-yl)vinyl]pyrimidin-2-yl}amino)-2-(piperazin-1-ylsulfonyl)phenyl]amino}ethanol], in that order: 233 nM and 6.5 nM.
In the case of `Nc1nc2ccc(/C=C/c3cnc(Nc4ccc(CCCN5CCCC5)cc4)nc3)cc2s1` [6-[(E)-2-(2-{[4-(3-pyrrolidin-1-ylpropyl)phenyl]amino}pyrimidin-5-yl)vinyl]-1,3-benzothiazol-2-amine], the half-inhibitory concentration (IC50) stood at 9450 nM on Abl (T315I) and 5150 nM against Abl kinase.
For `NC(=O)CN(C1CCNCC1)S(=O)(=O)c1ccc(Nc2ncc(/C=C/c3ccc4nc(N)sc4c3)cn2)cc1` [[4-({5-[(E)-2-(2-amino-1,3-benzothiazol-6-yl)vinyl]pyrimidin-yl}amino)phenyl]sulfonyl}-N2-piperidin-4-ylglycinamide], in that order: 96 nM and 113 nM.
Take `NC1CCN(S(=O)(=O)c2ccc(Nc3ncc(/C=C/c4cccc5[nH]ncc45)cn3)cc2)CC1` [N-{4-[(4-aminopiperidin-1-yl)sulfonyl]phenyl}-5-[(E)-2-(1H-indazol-4-yl)vinyl]pyrimidin-2-amine]: the IC50 on Abl (T315I) was 173 nM; against Abl kinase, 5.1 nM.
Regarding `O=C(Nc1cn2cc(/C=C/c3cnc(Nc4ccc(S(=O)(=O)C5CCNCC5)cc4)nc3)ccc2n1)C(F)(F)F` [2,2,2-Trifluoro-N-{6-[(E)-2-(2-{[4-(piperidin-4-ylsulfonyl)phenyl]amino}pyrimidin-5-yl)vinyl]imidazolo[1,2-a]pyridin-2-yl}acetamide trifluoroacetic acid salt], the IC50 against Abl (T315I) amounted to 475 nM; on Abl kinase, 1130 nM.
For `O=S(=O)(c1ccc(Nc2ncc(/C=C/c3cccc4[nH]ccc34)cn2)cc1N1CCNCC1)N1CCNCC1` [5-[(E)-2-(1H-indol-4-yl)vinyl]-N-[3-piperazin-1-yl-4-(piperazin-1-ylsulfonyl)phenyl]pyrimidin-2-amine trifluoroacetic acid salt], the half-inhibitory concentration (IC50) against Abl (T315I) was 885 nM; against Abl kinase it was 84 nM.
Turning to `O=S(=O)(c1ccc(Nc2ncc(/C=C/c3cccc4[nH]ccc34)cn2)cc1)C1CCN(CCO)CC1` [2-(4-(4-(5-((E)-2-(1H-indol-4-yl)vinyl)pyrimidin-2-ylamino)phenylsulfonyl)piperidin-1-yl)ethanol Hydrochloride], the concentration for half-maximal inhibition (IC50) came out at 202 nM on Abl (T315I) and 8.4 nM on Abl kinase.
In the case of `O=S(=O)(NCCN1CCCC1)c1ccc(Nc2ncc(/C=C/c3cccc(O)c3)cn2)cc1` [4-{5-[2-(3-Hydroxy-phenyl)-vinyl]-pyrimidin-2-ylamino}-N-(2-pyrrolidin-1-yl-ethyl)-benzenesulfonamide], the half-maximal inhibitory concentration (IC50) at Abl (T315I) is 141 nM; against Abl kinase, 7.1 nM.
In the case of `O=S(=O)(c1ccc(Nc2ncc(/C=C/c3ccc(-c4c[nH]cn4)cc3)cn2)cc1)N1CCNCC1` [(5-{2-[4-(1H-Imidazol-4-yl)-phenyl]-vinyl}-pyrimidin-2-yl)-[4-(piperazine-1-sulfonyl)-phenyl]-amine], the figures for the IC50 against Abl (T315I) and against Abl kinase were 5040 nM and 2860 nM, respectively.
As for `O=C(Nc1nc2ccc(/C=C/c3cnc(Nc4ccc(S(=O)(=O)C5CCNCC5)cc4)nc3)cc2s1)c1cccc(F)c1` [N-(6-((E)-2-(2-(4-(piperidin-4-ylsulfonyl)phenylamino)pyrimidin-5-yl)vinyl)benzo[d]thiazol-2-yl)-3-fluorobenzamide Hydrochloride], the IC50 against Abl (T315I) amounted to 2740 nM; against Abl kinase, 629 nM.
Take `Cc1cc(Nc2ncc(/C=C/c3cccc(O)c3)cn2)cc(C)c1S(=O)(=O)N(C)CCN1CCCC1` [4-{5-[2-(3-Hydroxy-phenyl)-vinyl]-pyrimidin-2-ylamino}-2,6,N-trimethyl-N-(2-pyrrolidin-1-yl-ethyl)-benzenesulfonamide]: the half-maximal inhibitory concentration (IC50) is 248 nM on Abl (T315I) and 16 nM against Abl kinase.
On the same counts, the results for `Nc1noc2c(/C=C/c3cnc(Nc4ccc(S(=O)(=O)N5CCNCC5)c(NCCO)c4)nc3)cccc12` [2-{[5-({5-{(E)-2-(3-amino-1,2-benzisoxazol-7-yl)vinyl]pyrimidin-2-yl}amino)-2-(piperazin-1-ylsulfonyl)phenyl]amino}ethanol] are 1860 nM and 34 nM.
As for `Nc1nc2ccc(/C=C/c3cnc(Nc4ccc(S(=O)(=O)N5CCC(N)CC5)cc4)nc3)cc2s1` [6-{(E)-2-[2-({4-[(4-aminopiperidin-1-yl)sulfonyl]phenyl}amino)pyrimidin-5-yl]vinyl}-1,3-benzothiazol-2-amine], the figures for the half-inhibitory concentration (IC50) at Abl (T315I) and at Abl kinase were 21 nM and 42 nM, respectively.
As for `O=S(=O)(c1ccc(Nc2ncc(/C=C/c3cccc(C(F)(F)F)c3)cn2)cc1)C1CCNCC1` [5-(3-(trifluoromethyl)styryl)-N-(4-(piperidin-4-ylsulfonyl)phenyl)pyrimidin-2-amine. TFA], the IC50 on Abl (T315I) is 3200 nM; against Abl kinase, 565 nM.
Turning to `O=S(=O)(c1ccc(Nc2ncc(/C=C/c3cccc(O)c3)cn2)cc1)C1CCNCC1` [3-(2-{2-[4-(Piperidine-4-sulfonyl)-phenylamino]-pyrimidin-5-yl}-vinyl)-phenol], the IC50 against Abl (T315I) came to 22 nM; against Abl kinase, 1.7 nM.
On to `Nc1nc2ccc(/C=C/c3cnc(Nc4ccc(S(=O)(=O)NC5CCNCC5)cc4)nc3)cc2s1` [4-{5-[2-(2-Amino-benzothiazol-6-yl)-vinyl]-piperidin-4-yl-benzenesulfonamide], for which the IC50 on Abl (T315I) turned out to be 29 nM; on Abl kinase it was 47 nM.
For `O=S(=O)(c1cccc(Nc2ncc(/C=C/c3cccc4[nH]ccc34)cn2)c1)N1CCNCC1` [5-[(E)-2-(1H-indol-4-yl)vinyl]-N-{3-(piperazin-1-ylsulfonyl)phenyl]pyrimidin-2-amine], in that order: about 10000 nM and 244 nM.
As to `Nc1nc2ccc(/C=C/c3cnc(Nc4ccc(S(=O)(=O)N5CCC(CO)CC5)cc4)nc3)cc2s1` [(1-{[4-({5-[(E)-2-(2-amino-yl)vinyl]pyrimidin-2-amino)phenyl]sulfonyl}piperidin-4-yl)methanol], the IC50 against Abl (T315I) came out at 194 nM; against Abl kinase, 437 nM.
Consider `C(=C\c1cccc2[nH]ccc12)/c1cnc(Nc2cccc(N3CCNCC3)c2)nc1` [{5-[2-(1H-Indol-4-yl)-vinyl]-pyrimidin-2-yl}-(3-piperazin-1-yl-phenyl)-amine], for which the results for the half-maximal inhibitory concentration (IC50) at Abl (T315I) and on Abl kinase were 2600 nM and 86 nM, respectively.
As for `Oc1ccc(Cl)c(/C=C/c2cnc(Nc3ccc(OCCN4CCCC4)cc3)nc2)c1` [3-((E)-2-(2-(4-(2-(pyrrolidin-1-yl)ethoxy)phenylamino)pyrimidin-5-yl)vinyl)-4-chlorophenol hydrochloride], the half-maximal inhibitory concentration (IC50) against Abl (T315I) was 972 nM; against Abl kinase, 13 nM.
Regarding `O=S(=O)(c1ccc(Nc2ncc(/C=C/c3cccc(O)c3)cn2)cc1NCCO)N1CCNCC1` [3-{(E)-2-[2-({3-[(2-hydroxyethyl)amino]-4-(piperazin-1-ylsulfonyl)phenyl}amino)pyrimidin-5-yl]vinyl}phenol trifluoroacetic acid salt], the 50% inhibitory concentration (IC50) at Abl (T315I) is 78 nM; against Abl kinase, 7.3 nM.
On to `NC1Cc2ccc(/C=C/c3cnc(Nc4ccc(S(=O)(=O)N5CCC(CO)CC5)cc4)nc3)cc2C1` (stereo not shown) [[1-(4-{5-[2-(2-Amino-indan-5-yl)-vinyl]-pyrimidin-2-ylamino}-benzenesulfonyl)-piperidin-4-yl]-methanol], for which the IC50 against Abl (T315I) was 2790 nM; on Abl kinase, 13700 nM.
As to `Nc1nc2ccc(/C=C/c3cnc(Nc4ccc([S+]([O-])CCN5CCOCC5)cc4)nc3)cc2s1` (stereo not shown) [6-(2-{2-[4-(2-Morpholin-4-yl-ethanesulfinyl)-phenylamino]-pyrimidin-5-yl}-vinyl)-benzothiazol-2-ylamine], the concentration for half-maximal inhibition (IC50) against Abl (T315I) was determined as 283 nM; against Abl kinase, 272 nM.
For `Nc1nc2ccc(/C=C/c3cnc(Nc4ccc(S(=O)(=O)NCCO)c(N5CCNCC5)c4)nc3)cc2s1` [4-({5-[(E)-2-(2-amino-1,3-benzothiazol-6-yl)vinyl]pyrimidin-2-yl}amino)-N-(2-hydroxyethyl)-2-piperazin-1-ylbenzenesulfonamide], in that order: 354 nM and 585 nM.
On to `O=S(=O)(c1ccc(Nc2ncc(/C=C/c3cccc4[nH]ncc34)cn2)cc1)N1CCNCC1` [{5-[2-(1H-Indazol-4-yl)-vinyl]-pyrimidin-2-yl}-[4-(piperazine-1-sulfonyl)-phenyl]-amine], for which the half-inhibitory concentration (IC50) was found to be 289 nM against Abl (T315I) and 44 nM at Abl kinase.
With `CN1CCC(S(=O)(=O)c2ccc(Nc3ncc(/C=C/c4cccc5[nH]ncc45)cn3)cc2)CC1` [N-(4-(1-methylpiperidin-4-ylsulfonyl)phenyl)-5-((E)-2-(1H-indazol-4-yl)vinyl)pyrimidin-2-amine], the IC50 on Abl (T315I) was found to be 2040 nM; against Abl kinase, 32 nM.
In the case of `NS(=O)(=O)c1ccc(/C=C/c2cnc(Nc3ccc(S(=O)(=O)N4CCCNCC4)cc3)nc2)cc1` [4-(2-{2-[4-([1,4]Diazepane-1-sulfonyl)-phenylamino]-pyrimidin-5-yl}-vinyl)-benzenesulfonamide], the IC50 was 298 nM on Abl (T315I) and 977 nM on Abl kinase.

For the origin of these results see patent publication US20070149508A1, “Six membered heteroaromatic inhibitors targeting resistant kinase mutations” (TargeGen, Inc., priority 2005, published 2007).
